Assays:
barnyardgrass (Ec) [1] = test: Test Example 1: herbicidal effects by paddy field soil treatment; assay type: in vivo; settings: 100 g of the active ingredient per 10 ares, 21st day after the application, index 0-5 of Table 47;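 further: grade of growth control; 5 = at least 90%; 4 = 70 to 90%; 3 = 50 to 70%; 2 = 30 to 50%; 1 = 10 to 30%; 0 = under 10%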
Outline: (§1)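 Herbicidal effect was scored against a graded standard 21 days after treatment. Seeds were sown in puddled, leveled paddy soil flooded to 3 cm depth, and the active ingredient was applied at 100 g per 10 ares before greenhouse culture.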

bulrush (Sc) = test: as above; assay type: in vivo; settings: 100 g of the active ingredient per 10 ares, 21st day after the application, index 0-5 of Table 47;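 further: grade of growth control; 5 = at least 90%; 4 = 70 to 90%; 3 = 50 to 70%; 2 = 30 to 50%; 1 = 10 to 30%; 0 = under 10%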
Outline: as §1

monochoria (Mo) = test: as above; assay type: in vivo; settings: 100 g of the active ingredient per 10 ares, 21st day after the application, index 0-5 of Table 47;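 further: grade of growth control; 5 = at least 90%; 4 = 70 to 90%; 3 = 50 to 70%; 2 = 30 to 50%; 1 = 10 to 30%; 0 = under 10%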
Outline: as §1

Digitaria ciliaris (Di) = test: Test Example 2: herbicidal effects by upland field soil treatment; assay type: in vivo; settings: 100 g of the active ingredient per 10 ares, evaluated on the 21st day after application;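 further: grade of growth control; 5 = at least 90%; 4 = 70 to 90%; 3 = 50 to 70%; 2 = 30 to 50%; 1 = 10 to 30%; 0 = under 10%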
Description: (§2) (Test on Herbicidal Effects by Upland Field Soil Treatment)

barnyardgrass (Ec) [2] = test: as above; assay type: in vivo; settings: 100 g of the active ingredient per 10 ares, evaluated on the 21st day after application
Description: as §2

[3] = system: common lambsquarters (Ch); test: as above; assay type: in vivo; settings: 100 g of the active ingredient per 10 ares, evaluated on the 21st day after application
Description: as §2

pale smartweed (Po) [4] = test: as above; assay type: in vivo; settings: 100 g of the active ingredient per 10 ares, evaluated on the 21st day after application
Description: as §2

rice flatsedge (Ci) [5] = test: as above; assay type: in vivo; settings: 100 g of the active ingredient per 10 ares, evaluated on the 21st day after application
Description: as §2

slender amaranth (Am) [6] = test: as above; assay type: in vivo; settings: 100 g of the active ingredient per 10 ares, evaluated on the 21st day after application
Description: as §2

Diaitaria ciliaris (Di) = test: Test Example 3: herbicidal effects by upland field foliage treatment; assay type: in vivo; design: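 grade of growth control; 5 = at least 90%; 4 = 70 to 90%; 3 = 50 to 70%; 2 = 30 to 50%; 1 = 10 to 30%; 0 = under 10%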; settings: 100 g active ingredient per 10 ares, evaluated 14th day after treatment
Outline: (§3)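 Weeds were sown in sand-filled pots (surface area: 120 cm^2), covered with soil and grown in a greenhouse for 2 weeks before foliar treatment. Plants then stayed in the greenhouse, and herbicidal effect was scored against graded standards on the 14th day after treatment.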

barnyardgrass (Ec) [7] = test: as above; assay type: in vivo; design: scale not given here; settings: 100 g active ingredient per 10 ares, evaluated 14th day after treatment
Outline: as §3

[8] = system: common lambsquarters (Ch); test: as above; assay type: in vivo; design: scale not given here; settings: 100 g active ingredient per 10 ares, evaluated 14th day after treatment
Outline: as §3

pale smartweed (Po) [9] = test: as above; assay type: in vivo; design: scale not given here; settings: 100 g active ingredient per 10 ares, evaluated 14th day after treatment
Outline: as §3

rice flatsedge (Ci) [10] = test: as above; assay type: in vivo; design: scale not given here; settings: 100 g active ingredient per 10 ares, evaluated 14th day after treatment
Outline: as §3

slender amaranth (Am) [11] = test: as above; assay type: in vivo; design: scale not given here; settings: 100 g active ingredient per 10 ares, evaluated 14th day after treatment
Outline: as §3

wheat (Tr) = test: Test Example 9: crop plant selectivity by upland field foliage treatment (wheat), phytotoxicity; settings: dose 1.6 g ai/10a, 14th day after treatment
Outline: (§4)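 Seeds of wheat, pale smartweed, slender amaranth, common lambsquarters and China jute are sown in sand and grown 2 weeks under glass. Foliage is then treated, culture resumes in the greenhouse, and damage is graded on the 14th day.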

China jute (Ab) [12] = test: Test Example 9: crop plant selectivity by upland field foliage treatment (wheat), herbicidal effects; assay type: in vivo; design: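 grade of growth control; 5 = at least 90%; 4 = 70 to 90%; 3 = 50 to 70%; 2 = 30 to 50%; 1 = 10 to 30%; 0 = under 10%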; settings: dose 1.6 g ai/10a, 14th day after treatment
Outline: as §4

[13] = system: common lambsquarters (Ch); test: as above; assay type: in vivo; design: scale not given here; settings: dose 1.6 g ai/10a, 14th day after treatment
Outline: as §4

pale smartweed (Po) [14] = test: as above; assay type: in vivo; design: scale not given here; settings: dose 1.6 g ai/10a, 14th day after treatment
Outline: as §4

slender amaranth (Am) [15] = test: as above; assay type: in vivo; design: scale not given here; settings: dose 1.6 g ai/10a, 14th day after treatment
Outline: as §4

soybean (Gl) = test: Test Example 10: crop plant selectivity by upland field foliage treatment (soybean), phytotoxicity; settings: dose 1.6 g ai/10a, 14th day after treatment
Description: (§5) (Test on Crop Plant Selectivity by Upland Field Foliage Treatment)
(§6) In a plastic pot (surface area: 600 cm^2) filled with sand, soybean (Gl), pale smartweed (Po), slender amaranth (Am), common lambsquarters (Ch) and China jute (Ab) were sown and cultured in a green house for 2 weeks. […] The plants were then cultured in a green house, and the evaluation of the herbicidal effects and phytotoxicity was conducted on the 14th day after the treatment in accordance with the standards as identified in Table 47.

China jute (Ab) [16] = test: Test Example 10: crop plant selectivity by upland field foliage treatment (soybean), herbicidal effects; assay type: in vivo; settings: dose 1.6 g ai/10a, 14th day after treatment
Description: as §5, §6

[17] = system: common lambsquarters (Ch); test: as above; assay type: in vivo; settings: dose 1.6 g ai/10a, 14th day after treatment
Description: as §5, §6

pale smartweed (Po) [18] = test: as above; assay type: in vivo; settings: dose 1.6 g ai/10a, 14th day after treatment
Description: as §5, §6

slender amaranth (Am) [19] = test: as above; assay type: in vivo; settings: dose 1.6 g ai/10a, 14th day after treatment
Description: as §5, §6

corn (Ze) = test: Test Example 11: crop plant selectivity by upland field foliage treatment (corn), phytotoxicity; settings: upland field foliage treatment, dose 1.6 g ai/10a, 14th day after treatment
Outline: (§7)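 Corn with pale smartweed, slender amaranth, common lambsquarters and China jute sown in sand-filled pots and grown 2 weeks in a greenhouse before foliage treatment. Herbicidal effect and crop phytotoxicity scored on day 14 after treatment against a rating standard.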

China jute (Ab) [20] = test: Test Example 11: crop plant selectivity by upland field foliage treatment (corn), herbicidal effects; assay type: in vivo; design: scale not given here; settings: upland field foliage treatment (corn test), dose 1.6 g ai/10a, 14th day after treatment
Outline: as §7

[21] = system: common lambsquarters (Ch); test: as above; assay type: in vivo; design: scale not given here; settings: upland field foliage treatment (corn test), dose 1.6 g ai/10a, 14th day after treatment
Outline: as §7

pale smartweed (Po) [22] = test: as above; assay type: in vivo; design: scale not given here; settings: upland field foliage treatment (corn test), dose 1.6 g ai/10a, 14th day after treatment
Outline: as §7

slender amaranth (Am) [23] = test: as above; assay type: in vivo; design: scale not given here; settings: upland field foliage treatment (corn test), dose 1.6 g ai/10a, 14th day after treatment
Outline: as §7

| Structure (SMILES) | Herbicidal effects Ec (barnyardgrass (Ec) [1]) | Herbicidal effects Sc (bulrush (Sc)) | Herbicidal effects Mo (monochoria (Mo)) | Herbicidal effects Di (Digitaria ciliaris (Di)) | Herbicidal effects Ec (barnyardgrass (Ec) [2]) | Herbicidal effects Ch [3] | Herbicidal effects Po (pale smartweed (Po) [4]) | Herbicidal effects Ci (rice flatsedge (Ci) [5]) | Herbicidal effects Am (slender amaranth (Am) [6]) | Herbicidal effects Di (Diaitaria ciliaris (Di)) | Herbicidal effects Ec (barnyardgrass (Ec) [7]) | Herbicidal effects Ch [8] | Herbicidal effects Po (pale smartweed (Po) [9]) | Herbicidal effects Ci (rice flatsedge (Ci) [10]) | Herbicidal effects Am (slender amaranth (Am) [11]) | Phytotoxicity Tr (wheat (Tr)) | Herbicidal effects Ab (China jute (Ab) [12]) | Herbicidal effects Ch [13] | Herbicidal effects Po (pale smartweed (Po) [14]) | Herbicidal effects Am (slender amaranth (Am) [15]) | further results |
| --- | --- | --- | --- | --- | --- | --- | --- | --- | --- | --- | --- | --- | --- | --- | --- | --- | --- | --- | --- | --- | --- |
| Cn1c(C(F)(F)F)ccc(-c2cc(C(=O)OC3CCCC3)c(Cl)cc2F)c1=O [Compound 1-184] | 5 | 5 | 5 | 5 | 5 | 5 | 5 | 5 | 5 | 5 | 5 | 5 | 5 | 5 | 5 | 2 | 5 | 5 | 5 | 5 | Phytotoxicity Gl (soybean (Gl)): 2; Herbicidal effects Ab (China jute (Ab) [16]): 5; Herbicidal effects Ch [17]: 5; Herbicidal effects Po (pale smartweed (Po) [18]): 5; Herbicidal effects Am (slender amaranth (Am) [19]): 5; Phytotoxicity Ze (corn (Ze)): 1; Herbicidal effects Ab (China jute (Ab) [20]): 5; Herbicidal effects Ch [21]: 5; Herbicidal effects Po (pale smartweed (Po) [22]): 5; Herbicidal effects Am (slender amaranth (Am) [23]): 5 |
| CCCOCc1cc2c(-c3ccc(C(F)(F)F)n(C)c3=O)c(F)cc(Cl)c2o1 [Compound 4-32] | 5 | 5 | 5 | 5 | 5 | 5 | 5 | 5 | 5 | 5 | 5 | 5 | 5 | 5 | 5 | 2 | 5 | 5 | 5 | 5 | Phytotoxicity Gl (soybean (Gl)): 2; Herbicidal effects Ab (China jute (Ab) [16]): 5; Herbicidal effects Ch [17]: 5; Herbicidal effects Po (pale smartweed (Po) [18]): 5; Herbicidal effects Am (slender amaranth (Am) [19]): 5; Phytotoxicity Ze (corn (Ze)): 2; Herbicidal effects Ab (China jute (Ab) [20]): 5; Herbicidal effects Ch [21]: 5; Herbicidal effects Po (pale smartweed (Po) [22]): 5; Herbicidal effects Am (slender amaranth (Am) [23]): 5 |
